Structures can show the parent of a compound that is named as a salt.
What was measured:
[1] = biological target: T1, JAK3 tyrosine kinase (Homo sapiens, UniProt P52333); assay: Test 1: inhibitory activity to JAK3 tyrosine kinase (ELISA); type: biochemical; conditions: 25 μM ATP in substrate solution, 30° C. for 1 hour, n=2
T1 construct: purchased Carnabioscience Co
T1 sequence (P52333 1-1124): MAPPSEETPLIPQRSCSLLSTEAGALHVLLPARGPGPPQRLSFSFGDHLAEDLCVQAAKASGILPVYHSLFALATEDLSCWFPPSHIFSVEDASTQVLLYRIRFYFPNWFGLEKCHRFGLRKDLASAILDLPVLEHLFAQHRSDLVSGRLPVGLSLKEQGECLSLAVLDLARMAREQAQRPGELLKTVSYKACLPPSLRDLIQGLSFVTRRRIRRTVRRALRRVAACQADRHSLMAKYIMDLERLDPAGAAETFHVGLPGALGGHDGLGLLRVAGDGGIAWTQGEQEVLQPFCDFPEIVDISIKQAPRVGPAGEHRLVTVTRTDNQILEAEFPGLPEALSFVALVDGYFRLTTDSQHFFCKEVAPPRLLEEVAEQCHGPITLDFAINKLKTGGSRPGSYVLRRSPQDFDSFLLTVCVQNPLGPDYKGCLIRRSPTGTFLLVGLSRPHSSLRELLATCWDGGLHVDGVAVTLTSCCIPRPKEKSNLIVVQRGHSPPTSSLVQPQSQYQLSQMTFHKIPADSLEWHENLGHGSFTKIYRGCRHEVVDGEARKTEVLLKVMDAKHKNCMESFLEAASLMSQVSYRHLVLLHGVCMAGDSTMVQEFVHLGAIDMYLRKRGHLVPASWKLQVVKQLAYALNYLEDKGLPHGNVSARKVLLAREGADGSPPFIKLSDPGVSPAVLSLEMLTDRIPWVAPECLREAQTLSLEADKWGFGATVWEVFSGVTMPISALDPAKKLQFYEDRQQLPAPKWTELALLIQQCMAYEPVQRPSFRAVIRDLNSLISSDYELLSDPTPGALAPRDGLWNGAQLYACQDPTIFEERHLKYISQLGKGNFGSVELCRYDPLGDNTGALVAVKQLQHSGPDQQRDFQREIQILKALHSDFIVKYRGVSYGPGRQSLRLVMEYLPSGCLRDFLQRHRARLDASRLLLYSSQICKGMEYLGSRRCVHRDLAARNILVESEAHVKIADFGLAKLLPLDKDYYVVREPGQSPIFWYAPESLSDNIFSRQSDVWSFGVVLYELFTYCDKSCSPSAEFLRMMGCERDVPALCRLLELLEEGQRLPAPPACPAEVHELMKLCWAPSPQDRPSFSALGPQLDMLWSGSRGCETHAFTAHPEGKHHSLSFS
Outline: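 ELISA of JAK3 kinase activity with absorbance read at 450 nm. Compounds were tested from DMSO dilution series at 100-fold the measurement concentrations (1000–0.01 μM), diluted up to 20 times in assay buffer, against a DMSO negative control. IC50 was estimated by non-linear regression of absorbance.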

[2] = biological target: T2, JAK2 tyrosine kinase (Homo sapiens, UniProt O60674); assay: Test 1: inhibitory activity to JAK2 tyrosine kinase (ELISA); type: biochemical; conditions: 25 μM ATP in substrate solution, 30° C. for 1 hour, n=2
T2 construct: purchased Carnabioscience Co
T2 sequence (O60674 whole entry): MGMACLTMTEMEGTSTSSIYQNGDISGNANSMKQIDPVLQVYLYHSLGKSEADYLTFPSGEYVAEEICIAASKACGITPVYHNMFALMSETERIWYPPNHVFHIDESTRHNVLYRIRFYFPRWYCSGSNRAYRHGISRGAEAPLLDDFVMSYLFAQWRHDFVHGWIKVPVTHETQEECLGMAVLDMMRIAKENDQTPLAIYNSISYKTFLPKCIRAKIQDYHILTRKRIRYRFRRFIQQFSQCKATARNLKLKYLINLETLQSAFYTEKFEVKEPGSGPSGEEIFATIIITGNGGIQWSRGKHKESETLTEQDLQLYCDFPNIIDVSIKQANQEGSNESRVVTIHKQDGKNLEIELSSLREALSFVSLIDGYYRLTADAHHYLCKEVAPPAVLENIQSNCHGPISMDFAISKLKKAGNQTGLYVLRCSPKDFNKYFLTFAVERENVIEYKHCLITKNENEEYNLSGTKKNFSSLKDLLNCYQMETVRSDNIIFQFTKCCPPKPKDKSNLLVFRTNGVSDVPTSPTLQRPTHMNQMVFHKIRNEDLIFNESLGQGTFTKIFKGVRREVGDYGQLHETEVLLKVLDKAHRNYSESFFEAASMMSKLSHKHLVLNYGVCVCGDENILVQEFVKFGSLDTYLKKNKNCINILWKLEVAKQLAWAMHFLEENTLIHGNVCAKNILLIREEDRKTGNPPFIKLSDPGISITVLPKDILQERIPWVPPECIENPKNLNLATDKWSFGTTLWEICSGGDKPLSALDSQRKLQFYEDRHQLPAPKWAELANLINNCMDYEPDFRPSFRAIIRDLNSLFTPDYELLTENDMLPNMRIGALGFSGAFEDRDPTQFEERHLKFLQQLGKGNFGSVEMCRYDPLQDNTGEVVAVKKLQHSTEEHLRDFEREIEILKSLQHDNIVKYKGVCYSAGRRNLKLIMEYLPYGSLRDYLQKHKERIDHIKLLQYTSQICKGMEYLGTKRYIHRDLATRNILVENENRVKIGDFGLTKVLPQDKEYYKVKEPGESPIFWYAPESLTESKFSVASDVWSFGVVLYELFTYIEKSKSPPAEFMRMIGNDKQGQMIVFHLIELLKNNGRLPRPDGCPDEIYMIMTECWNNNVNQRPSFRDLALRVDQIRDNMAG
Outline: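 This is an ELISA read at A450 (HRP anti-phosphotyrosine antibody, TMB) of biotin-peptide phosphorylation captured on streptavidin. Enzyme solution was 0.75 nM JAK2, and the substrate solution was 625 nM peptide with 25 μM ATP in Tris pH 7.5 buffer. The reaction ran 1 h at 30 °C with compounds in duplicate, and IC50 was fitted non-linearly.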

Row | IC50 [1] [µM] | IC50 [2] [µM] | Structure (SMILES)
1 | 0.31 | 0.0034 | C[C@H](Nc1cc(N2CCSCC2)cc(Nc2cnccn2)n1)c1ccc(F)cc1 [Example 40, (S)—N^2-[1-(4-Fluorophenyl)ethyl]-N^6-(pyrazin-2-yl)-4-thiomorpholinopyridine-2,6-diamine]
2 | 0.13 | 0.0016 | C[C@H](Nc1cc(N2CCC(O)(CO)CC2)cc(Nc2cnccn2)n1)c1ccc(F)cc1 [Example 125, (S)-1-{2-[1-(4-Fluorophenyl)ethylamino]-6-(pyrazin-2-ylamino)pyridin-4-yl}-4-(hydroxymethyl)piperidin-4-ol]
3 | 0.047 | 0.00099 | CNC(=O)C1CN(c2cc(Nc3cnccn3)nc(N[C@@H](C)c3ccc(F)cc3)n2)C1 [Example 174]
4 | 0.48 | 0.0056 | C[C@H](Nc1nc(Nc2cnccn2)cc(-c2cccc(C#N)c2)n1)c1ccc(F)cc1 [Example 81, (S)-3-{2-[1-(4-Fluorophenyl)ethylamino]-6-(pyrazin-2-ylamino)pyrimidin-4-yl}benzonitrile]
5 | 0.2 | 0.0028 | C[C@H](Nc1cc(-c2ccc(S(C)(=O)=O)cc2)cc(Nc2cnccn2)n1)c1ccc(F)cc1 [Example 36, (S)—N^2-[1-(4-Fluorophenyl)ethyl]-4-[4-(methylsulfonyl)phenyl]-N^6-(pyrazin-2-yl)pyridine-2,6-diamine hydrochloride]
6 | 0.17 | 0.002 | C[C@H](Nc1nc(Nc2cnccn2)cc(-c2cncc(C(N)=O)c2)n1)c1ccc(F)cc1 [Example 84, (S)-5-{2-[1-(4-Fluorophenyl)ethylamino]-6-(pyrazin-2-ylamino)pyrimidin-4-yl}nicotinamide]
7 | 0.026 | 0.00072 | C[C@H](Nc1nc(Nc2cnccn2)cc(N2CCC(O)CC2)n1)c1ccc(F)cc1 [Example 71, (S)-1-{2-[1-(4-Fluorophenyl)ethylamino]-6-(pyrazin-2-ylamino)pyrimidin-4-yl}piperidin-4-ol hydrochloride]
8 | 0.63 | 0.008 | C[C@H](Nc1nc(Nc2cnccn2)cc(N2CCCC2=O)n1)c1ccc(F)cc1 [Example 16, (S)-1-{2-[1-(4-Fluorophenyl)ethylamino]-6-(pyrazin-2-ylamino)pyrimidin-4-yl}pyrrolidin-2-one]
9 | 0.087 | 0.00074 | C[C@H](Nc1nc(Nc2cnccn2)cc(N2CC(NS(C)(=O)=O)C2)n1)c1ccc(F)cc1 [Example 177, (S)—N-(1-{2-[1-(4-Fluorophenyl)ethylamino]-6-(pyrazin-2-ylamino)pyrimidin-4-yl}azetidin-3-yl)methanesulfonamide]
10 | 0.03 | 0.0004 | CC(=O)N[C@H]1CCN(c2cc(Nc3cnccn3)nc(N[C@@H](C)c3ccc(F)cc3)n2)C1 [Example 33, N-{(S)-1-[2-{[(S)-1-(4-Fluorophenyl)ethyl]amino}-6-(pyrazin-2-ylamino)pyrimidin-4-yl]pyrrolidin-3-yl}acetamide maleate]
11 | 0.028 | 0.00027 | C[C@H](Nc1nc(Nc2cnccn2)cc(-c2ccc(O)nc2)n1)c1ccc(F)cc1 [Example 26, (S)-5-{2-[1-(4-Fluorophenyl)ethylamino]-6-(pyrazin-2-ylamino)pyrimidin-4-yl}pyridin-2-ol]
12 | 0.11 | 0.0022 | C[C@H](Nc1nc(Nc2cnccn2)cc(OCCO)n1)c1ccc(F)cc1 [Example 95, (S)-2-{2-[1-(4-Fluorophenyl)ethylamino]-6-(pyrazin-2-ylamino)pyrimidin-4-yloxy}ethanol hydrochloride]
13 | 0.22 | 0.007 | C[C@H](Nc1nc(Nc2cnccn2)cc(N2CCC[C@H]2C(N)=O)n1)c1ccc(F)cc1 [Example 64, (S)-1-{2-[(S)-1-(4-Fluorophenyl)ethylamino]-6-(pyrazin-2-ylamino)pyrimidin-4-yl}pyrrolidin-2-carboxamide hydrochloride]
14 | 0.13 | 0.0024 | C[C@H](Nc1nc(Nc2cnccn2)cc(N[C@@H](CO)C(N)=O)n1)c1ccc(F)cc1 [Example 109, (S)-2-{2-[(S)-1-(4-Fluorophenyl)ethylamino]-6-(pyrazin-2-ylamino)pyrimidin-4-ylamino}-3-hydroxypropanamide]
15 | 0.45 | 0.014 | C[C@H](Nc1nc(Nc2cnccn2)cc(N[C@H](CO)Cc2ccccc2)n1)c1ccc(F)cc1 [Example 87, (S)-2-{2-[(S)-1-(4-Fluorophenyl)ethylamino]-6-(pyrazin-2-ylamino)pyrimidin-4-ylamino}-3-phenylpropan-1-ol]
16 | 0.095 | 0.00089 | C[C@H](Nc1nc(Nc2cnccn2)cc(-c2ccc(S(C)(=O)=O)cc2)n1)c1ccc(F)cc1 [Example 10, (S)—N^2-[1-(4-Fluorophenyl)ethyl]-6-[4-(methylsulfonyl)phenyl]-N^4-(pyrazin-2-yl)pyrimidine-2,4-diamine hydrochloride]
17 | 0.15 | 0.0038 | C[C@H](Nc1nc(Nc2cnccn2)cc(OCCN(C)C)n1)c1ccc(F)cc1 [Example 89, (S)-6-[2-(Dimethylamino)ethoxy]-N^2-[1-(4-fluorophenyl)ethyl]-N^4-(pyrazin-2-yl)pyrimidine-2,4-diamine dihydrochloride]
18 | 0.39 | 0.0059 | COc1ncc(-c2cc(Nc3cnccn3)nc(N[C@@H](C)c3ccc(F)cc3)n2)s1 [Example 53, (S)—N^2-[1-(4-Fluorophenyl)ethyl]-6-(2-methoxythiazol-5-yl)-N^4-(pyrazin-2-yl)pyrimidine-2,4-diamine]
19 | 0.079 | 0.00092 | C[C@H](Nc1cc(OCCO)cc(Nc2cnccn2)n1)c1ccc(F)cc1 [Example 12, (S)-2-{2-[1-(4-Fluorophenyl)ethylamino]-6-(pyrazin-2-ylamino)pyridin-4-yloxy}ethanol hydrochloride]
20 | 0.14 | 0.0021 | C[C@H](Nc1nc(Nc2cnccn2)cc(N2CC(F)C2)n1)c1ccc(F)cc1 [Example 44, (S)-6-(3-Fluoroazetidin-1-yl)-N^2-[1-(4-fluorophenyl)ethyl]-N^4-(pyrazin-2-yl)pyrimidine-2,4-diamine]
21 | 0.064 | 0.0016 | C[C@H](Nc1nc(Nc2cnccn2)cc(N2CC(C(=O)NCCO)C2)n1)c1ccc(F)cc1 [Example 199, (S)-1-{2-[1-(4-Fluorophenyl)ethylamino]-6-(pyrazin-2-ylamino)pyrimidin-4-yl}-N-(2-hydroxyethyl)azetidine-3-carboxamide]
22 | 0.057 | 0.0025 | C[C@H](Nc1nc(NCCN)cc(Nc2cnccn2)n1)c1ccc(F)cc1 [Example 76, (S)—N^4-(2-Aminoethyl)-N^2-[1-(4-fluorophenyl)ethyl]-N^6-(pyrazin-2-yl)pyrimidine-2,4,6-triamine dihydrochloride]
23 | 0.036 | 0.0015 | COCCn1cc(-c2cc(Nc3cnccn3)nc(N[C@@H](C)c3ccc(F)cc3)c2)cn1 [Example 217, (S)—N^2-[1-(4-Fluorophenyl)ethyl]-4-[1-(2-methoxyethyl)-1H-pyrazol-4-yl]-N^6-(pyrazin-2-yl)pyridine-2,6-diamine]
24 | 0.14 | 0.0043 | C[C@H](Nc1nc(NCC(N)=O)cc(Nc2cnccn2)n1)c1ccc(F)cc1 [Example 79, (S)-2-{2-[1-(4-Fluorophenyl)ethylamino]-6-(pyrazin-2-ylamino)pyrimidin-4-ylamino}acetamide hydrochloride]
25 | 0.059 | 0.0026 | C[C@H](Nc1nc(Nc2cnccn2)cc(N2CCCC2)n1)c1ccc(F)cc1 [Example 19, (S)—N^2-[1-(4-Fluorophenyl)ethyl]-N^4-(pyrazin-2-yl)-6-(pyrrolidin-1-yl)pyrimidine-2,4-diamine]
26 | 0.02 | 0.00051 | C[C@H](Nc1nc(Nc2cnccn2)cc(N2CCC(C(=O)O)CC2)n1)c1ccc(F)cc1 [Example 85, (S)-1-{2-[1-(4-Fluorophenyl)ethylamino]-6-(pyrazin-2-ylamino)pyrimidin-4-yl}piperidine-4-carboxylic acid]

From patent US8586591B2, “Aminopyrazine derivative and medicine” (Nippon Shinyaku Co., Ltd., priority 2009, dated 2013)
